Laboratory results taken from US11510859B2, “Method for improving aqueous solubility of water-insoluble or slightly water-soluble drugs” (MARINOMED BIOTECH AG, priority 2015, dated 2022).

Columns and labels:
[1] = Saturation concentrations of drugs in buffered solvent, HPLC of supernatant (Example 4); format: physicochemical; conditions: McIlvaine buffer pH 6.0; compound pre-dissolved in propylene glycol
Method: 250 μl “McIlvaine 0.1%” were mixed with 50 μl dexpanthenol stock solution, brought to 900 μl with distilled water, and combined and vigorously mixed with 100 μl experimental compound pre-dissolved resp. pre-suspended in propylene glycol. Alternative solutions with compound pre-dilutions/pre-suspensions in DMSO were prepared. Samples were centrifuged for 10 min at 15800 rcf. Aliquots of the clear supernatants were transferred into autosampler glass vials and the content of the dissolved experimental compounds was analyzed by HPLC using isocratic elution with 70% or 80% acetonitrile 0.01% TFA/[…] or 30% water 0.01% TFA at 1 ml/min and 50° C. for 10 min on an Agilent Zorbax Eclipse Plus C18 column (3.5 μm, 4.6×150 mm) and UV absorbance detection at the wavelengths appropriate for the respective experimental compound.

[2] = Fluticasone propionate solubility in the presence of hyaluronic acid (Examples 3, 14); format: physicochemical; conditions: 5% propylene glycol, 7.5 g/l hyaluronic acid; one month storage at ambient temperature
Method: Samples of series A (0% dexpanthenol): 2.5 ml solution containing the respective escin concentration (McIlvaine 0.01%, 0.02%, 0.03% or McIlvaine buffer) were mixed with 3.6 ml hyaluronic acid stock solution and 0.5 ml Fluticasone propionate pre-solution and filled up to 10 ml with distilled water. Samples of series B (2% dexpanthenol): 2.5 ml solution containing the respective escin concentration (McIlvaine 0.01%, 0.02%, 0.03% or McIlvaine buffer) were mixed with 0.2 ml dexpanthenol, 3.6 ml Hyaluronic acid stock solution and 0.5 ml fluticasone propionate pre-solution and filled up to 10 ml with distilled water. […]
After 1 month storage at room temperature, samples were taken and centrifuged for 11 min at 15700 rcf. The clear supernatant was filled into glass vials and the concentration of dissolved FP (maximal 5 μg/ml) was measured in duplicates by HPLC.
Fluticasone propionate in the presence of hyaluronic acid was analyzed by RP-HPLC (UV absorbance detection at 235 nm) using a gradient from 5% acetonitrile to 90% acetonitrile in water containing 0.01% TFA (see detailed gradient description below).
Solvent A: water HPLC gradient grade 0.01% trifluoroacetic acid. […] From the fluticasone propionate containing samples 40 μl each were injected and analyzed. […]

[3] = Solubility of fluticasone propionate in 0.25x McIlvaine buffer (Examples 10, 11); format: physicochemical
Method: 0% Propylene glycol • B . . . 5% Propylene glycol • C . . . 10% Propylene glycol • * . . . w/v % Escin • # . . . v/v % Dexpanthenol • y-axis . . . concentration of dissolved fluticasone propionate
FIG. 7 represents the impact of dexpanthenol and saponin concentration on the dissolution of fluticasone propionate in 0.25× McIlvaine buffer containing 5% propylene glycol (maximum concentration achieved=5 μg/ml). […] The presence of 5% dexpanthenol seems to deliver solubility boosting effects. • A . . . 0% Dexpanthenol • B . . . 5% Dexpanthenol • y-axis . . . concentration of dissolved fluticasone propionate • x-axis . . . % Glycyrrhizin

porcine nasal mucosa = assay: Ex vivo penetration of fluticasone propionate into porcine nasal mucosa; format: in vitro ADME; conditions: 5 μg/ml; 0.03% escin, 3% propylene glycol, 5% dexpanthenol vs suspension without saponin; 15-60 min
Method: In order to test for the bioavailability of compositions prepared in accordance with the present invention, experiments were conducted ex vivo wherein an experimental composition comprising fluticasone propionate as a compound of interest was compared to a composition comprising the same compound at the same concentration but without a saponin as a solubilization enhancer.
FIG. 14 represents the concentrations of fluticasone propionate penetrated ex-vivo into porcine nasal mucosa at different time points. The experimental composition comprised 5 μg/ml fluticasone propionate dissolved in aqueous buffer comprising 0.03% escin, 3% propylene glycol and 5% dexpanthenol. The comparative specimen was a suspension comprising the same aqueous buffer and no saponin nor dexpanthenol. Both formulations were added ex-vivo onto surgically extracted porcine nasal mucosa. After 15, 30, 45 and 60 minutes of incubation the mucosa was washed and the amount of permeated fluticasone propionate was determined by HPLC-MS/MS. • A—experimental composition; • B—comparative fluticasone propionate suspension; • x-axis=incubation time in minutes; • y-axis=ng fluticasone propionate/g tissue.

[4] = U.S. Pat. No. 4,868,170; cited from earlier work

SMILES	Saturation concentration in 10% propylene glycol or DMSO without escin or dexpanthenol [1] [µg/mL]	Saturation concentration in 10% propylene glycol or DMSO, 0.1% escin and 5% dexpanthenol [1] [µg/mL]	effect of dexpanthenol on fluticasone propionate solubility in the presence of escin [2]	best achieved concentration without saponin relative to maximum concentration with at least 0.03% escin ([3]; 0.25x McIlvaine buffer pH 6, propylene glycol 0-10%, dexpanthenol 0-5%)	maximum concentration achieved ([3]; 0.25x McIlvaine buffer, 5% propylene glycol, glycyrrhizin, dexpanthenol 0% or 5%) [µg/mL]	concentration of drug permeated into mucosal tissue, experimental composition versus comparative suspension (porcine nasal mucosa)	aqueous solubility [4]
CCC(=O)O[C@]1(C(=O)SCF)[C@H](C)C[C@H]2[C@@H]3C[C@H](F)C4=CC(=O)C=C[C@]4(C)[C@@]3(F)[C@@H](O)C[C@@]21C [Fluticasone propionate]	0.68	5	synergistically boost the solubility enhancing activity of escin	about 50%	5	around five times higher	–
CCS[C@]1(SC)CC[C@H]2[C@@H]3CCC4=CC(=O)C=C[C@]4(C)[C@@]3(F)[C@@H](O)C[C@@]21C [tipredane]	–	–	–	–	–	–	less than 0.2 mg/l
